Measured values published in ChEMBL document CHEMBL1201862, “PubChem BioAssay data set” (2004).
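Five concentrations, 48 hours, 96-well plates. GI50 is the concentration that inhibits growth by half.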 Calls of active or inactive are those of the source. Rule as the data show it: active = GI50 up to about 1.1 µM and inactive = higher.

Legend:
Experiment in all cases: growth of human tumour cells (NCI), 48 h
[1] = system: NCI-H23
[2] = system: RXF 393
[3] = system: MDA-MB-231
[4] = system: 786-0
[5] = system: U-251
[6] = system: OVCAR-8
[7] = system: UO-31
[8] = system: SNB-19
[9] = system: HCT-116
[10] = system: SN12C
[11] = system: COLO 205
[12] = system: HCT-15
[13] = system: UACC-257
[14] = system: T47D
[15] = system: OVCAR-5
[16] = system: M14
[17] = system: KM12
[18] = system: MOLT-4
[19] = system: NCI-H522

| SMILES | GI50 [1] | GI50 [2] | GI50 [3] | GI50 [4] | GI50 [5] | GI50 [6] | GI50 [7] | GI50 [8] | GI50 [9] | GI50 [10] | GI50 [11] | GI50 [12] | GI50 [13] | GI50 [14] | GI50 [15] | GI50 [16] | GI50 [17] | GI50 [18] | GI50 [19] |
| --- | --- | --- | --- | --- | --- | --- | --- | --- | --- | --- | --- | --- | --- | --- | --- | --- | --- | --- | --- |
| Cc1cc2nc3c(N)nn(CCCN(C)C)c3nc2cc1C | > 100 µM (inactive) | > 100 µM (inactive) | 60.5 µM (inactive) | 68.9 µM (inactive) | 71.9 µM (inactive) | 83 µM (inactive) | 46.6 µM (inactive) | > 100 µM (inactive) | 50.5 µM (inactive) | > 100 µM (inactive) | 55 µM (inactive) | > 100 µM | 97.5 µM (inactive) | > 100 µM (inactive) | > 100 µM (inactive) | 30.1 µM (inactive) | 93.8 µM (inactive) |  |  |
| CC1(C)[C@@H](Cn2cc(I)c(=O)[nH]c2=O)CC[C@@]1(C)CO |  | > 100 µM (inactive) | > 100 µM (inactive) | > 100 µM (inactive) | > 100 µM (inactive) |  | > 100 µM (inactive) | > 100 µM (inactive) | > 100 µM (inactive) | > 100 µM (inactive) | > 100 µM (inactive) | > 100 µM | > 100 µM (inactive) | > 100 µM (inactive) | > 100 µM (inactive) | > 100 µM (inactive) | > 100 µM (inactive) |  |  |
| COc1cc(-c2oc3c(OC)c(O)c(OC)c(O)c3c(=O)c2OC)ccc1O | 52.4 µM (inactive) |  | 44.2 µM (inactive) | 38.1 µM (inactive) | 26.4 µM (inactive) | 68.5 µM (inactive) | 31.6 µM (inactive) | > 100 µM (inactive) | 50.6 µM (inactive) | 59.8 µM (inactive) | > 100 µM (inactive) | 28.8 µM | 60.5 µM (inactive) | 20.3 µM (inactive) | > 100 µM (inactive) | 10.4 µM (inactive) | > 100 µM (inactive) | 95.5 µM (inactive) | 29.1 µM (inactive) |
| NC1=CN2c3ccccc3N(CC(=O)O)C2C=C1 (stereo unspecified) | > 100 µM (inactive) | > 100 µM (inactive) | > 100 µM (inactive) | > 100 µM (inactive) | > 100 µM (inactive) | > 100 µM (inactive) | > 100 µM (inactive) | > 100 µM (inactive) | > 100 µM (inactive) |  | > 100 µM (inactive) | > 100 µM | > 100 µM (inactive) | > 100 µM (inactive) | > 100 µM (inactive) | > 100 µM (inactive) | > 100 µM (inactive) | > 100 µM (inactive) |  |
| C[C@H](O)C1CC(Cn2nnc3c(N)ncnc32)C1(C)C (stereo partly specified) |  | > 100 µM (inactive) | > 100 µM (inactive) | > 100 µM (inactive) | > 100 µM (inactive) |  | > 100 µM (inactive) | > 100 µM (inactive) | > 100 µM (inactive) | > 100 µM (inactive) |  | > 100 µM | > 100 µM (inactive) | > 100 µM (inactive) | > 100 µM (inactive) | > 100 µM (inactive) | > 100 µM (inactive) |  |  |
| NC(CSC1c2ccccc2-c2ccccc21)C(=O)O (stereo unspecified) | > 100 µM (inactive) | > 100 µM (inactive) | > 100 µM (inactive) | > 100 µM (inactive) | > 100 µM (inactive) | > 100 µM (inactive) | > 100 µM (inactive) | > 100 µM (inactive) | > 100 µM (inactive) | > 100 µM (inactive) | > 100 µM (inactive) | > 100 µM | > 100 µM (inactive) | > 100 µM (inactive) | > 100 µM (inactive) | > 100 µM (inactive) | > 100 µM (inactive) | > 100 µM (inactive) |  |
| COc1cc2c3cc1Oc1c(OC)c(OC)cc4c1C(Cc1ccc(O)c(c1)Oc1ccc(cc1)CC3N(C)CC2)N(C)CC4 (stereo unspecified) | 14.8 µM (inactive) |  | 35.6 µM (inactive) | > 100 µM (inactive) | 21.4 µM (inactive) | 33.6 µM (inactive) | 16.7 µM (inactive) | 20.2 µM (inactive) | 45.3 µM (inactive) | 19.1 µM (inactive) | 32 µM (inactive) | 16.1 µM | 34.1 µM (inactive) | 27.8 µM (inactive) | 39.7 µM (inactive) | 33.7 µM (inactive) | 28.1 µM (inactive) | 44.4 µM (inactive) | 31.5 µM (inactive) |
| CCOP(=O)(OCC)/C(C#N)=C/c1nccn1C | > 100 µM (inactive) |  | > 100 µM (inactive) | > 100 µM (inactive) | > 100 µM (inactive) | > 100 µM (inactive) | > 100 µM (inactive) | > 100 µM (inactive) | > 100 µM (inactive) | > 100 µM (inactive) | > 100 µM (inactive) | > 100 µM | > 100 µM (inactive) | > 100 µM (inactive) | > 100 µM (inactive) | > 100 µM (inactive) | > 100 µM (inactive) | > 100 µM (inactive) | > 100 µM (inactive) |
| O=C1c2c(O)cccc2Cc2cc(CO)cc(O)c21 | 1.85 µM (inactive) |  | 2.3 µM (inactive) | 3.21 µM (inactive) | 1.34 µM (inactive) | 2.74 µM (inactive) | 1.89 µM (inactive) | 2.49 µM (inactive) | 2.31 µM (inactive) | 3.38 µM (inactive) | 1.87 µM (inactive) | 3.22 µM | 2.14 µM (inactive) | 2.96 µM (inactive) | 4.02 µM (inactive) | 2.31 µM (inactive) |  | 2.96 µM (inactive) |  |
| COc1ccc(/C=N/n2c(C)n[nH]c2=O)cc1 | > 100 µM (inactive) |  | > 100 µM (inactive) | > 100 µM (inactive) | > 100 µM (inactive) | > 100 µM (inactive) | > 100 µM (inactive) | > 100 µM (inactive) | > 100 µM (inactive) | > 100 µM (inactive) | > 100 µM (inactive) | > 100 µM | > 100 µM (inactive) | > 100 µM (inactive) | > 100 µM (inactive) | > 100 µM (inactive) | > 100 µM (inactive) | > 100 µM (inactive) |  |
| OC(C#Cc1ccccc1)(c1ccccc1)c1ccccc1 | 53.5 µM (inactive) |  | 51.8 µM (inactive) | > 100 µM (inactive) | 26.7 µM (inactive) | 63.5 µM (inactive) | 40.8 µM (inactive) | 70.6 µM (inactive) | > 100 µM (inactive) | 69.8 µM (inactive) | 50.7 µM (inactive) | 39.5 µM | 24.5 µM (inactive) | 18.9 µM (inactive) | 30.5 µM (inactive) | > 100 µM (inactive) | 28 µM (inactive) | 47.6 µM (inactive) | 30.9 µM (inactive) |
| COc1cc(/C=N\NC(=O)C[N+](C)(C)C)cc(OC)c1OC | > 10 µM (inactive) |  | > 10 µM (inactive) | > 10 µM (inactive) | > 10 µM (inactive) | > 10 µM (inactive) |  | > 10 µM (inactive) | > 10 µM (inactive) | > 10 µM (inactive) | > 10 µM (inactive) | > 10 µM | > 10 µM (inactive) | > 10 µM (inactive) | > 10 µM (inactive) | > 10 µM (inactive) | > 10 µM (inactive) | > 10 µM (inactive) | > 10 µM (inactive) |
| O=C1CSC(c2cccc(Cl)c2)N1c1ccc(-n2c(-c3ccccc3)nc3ccccc3c2=O)cc1 (stereo unspecified) | > 100 µM (inactive) |  | 21.1 µM (inactive) | > 100 µM (inactive) | 29 µM (inactive) | 79.8 µM (inactive) | 3.22 µM (inactive) | > 100 µM (inactive) | 53 µM (inactive) | > 100 µM (inactive) | > 100 µM (inactive) | 15.8 µM | > 100 µM (inactive) | 10 µM (inactive) | > 100 µM (inactive) |  | 21.3 µM (inactive) | 5.47 µM (inactive) | 43.3 µM (inactive) |
| Cc1c(CCCl)c(=O)n2c([nH]c3ccccc32)c1C#N | 1.53 µM (inactive) | 1.76 µM (inactive) | 1.52 µM (inactive) | 1.51 µM (inactive) | 1.79 µM (inactive) | 1.6 µM (inactive) | 1.91 µM (inactive) |  | 0.614 µM (active) | 1.36 µM (inactive) | 0.148 µM (active) | 1.57 µM | 2.73 µM (inactive) | 1.51 µM (inactive) | 2.33 µM (inactive) | 1.6 µM (inactive) | 1.75 µM (inactive) | 0.237 µM (active) |  |
| COc1cc(C)cc2c1c(=O)c1ccccc1n2C | 40.8 µM (inactive) | 28.3 µM (inactive) | 53.5 µM (inactive) | 38.5 µM (inactive) | 33.9 µM (inactive) | 40.1 µM (inactive) |  | 54.8 µM (inactive) | 30 µM (inactive) | 37.5 µM (inactive) | 27.2 µM (inactive) | 36.4 µM | 40.2 µM (inactive) |  | 34.8 µM (inactive) | 34.7 µM (inactive) | 34.4 µM (inactive) | 31.3 µM (inactive) | 34 µM (inactive) |
| O=C(Nc1ccccc1)c1cc(S(=O)(=O)Nc2n[nH]c(=O)[nH]2)c(SSc2cc(Cl)c(C(=O)Nc3ccccc3)cc2S(=O)(=O)Nc2n[nH]c(=O)[nH]2)cc1Cl | > 100 µM (inactive) |  | > 100 µM (inactive) | > 100 µM (inactive) | > 100 µM (inactive) | > 100 µM (inactive) | > 100 µM (inactive) | > 100 µM (inactive) | > 100 µM (inactive) | > 100 µM (inactive) | > 100 µM (inactive) | > 100 µM | > 100 µM (inactive) |  | > 100 µM (inactive) | > 100 µM (inactive) | > 100 µM (inactive) | > 100 µM (inactive) | > 100 µM (inactive) |
